{"source": "paper PMC8315004", "about": "“Discovery of Small-Molecule Inhibitors of SARS-CoV-2 Proteins Using a Computational and Experimental Pipeline” (Frontiers in Molecular Biosciences, 2021)", "biological_target": "SARS-CoV-2 M^pro (Severe acute respiratory syndrome coronavirus 2, UniProt P0DTD1)", "assay": "biochemical", "design": "inhibition: dose or concentration left out as unconfirmed", "conditions": "for inhibition / inhibition at 100 µM: read-out: Normalized Percent FRET inhibition", "key": {"[1]": {"conditions": "initial screen, 100 μM of drug, Table S4"}}}
{"molecule": "C[C@H]1CN(C[C@H](Cc2ccccc2)C(=O)NCC(=O)O)CC[C@@]1(C)c1cccc(O)c1", "note": "[Alvimopan]", "values": [{"measurement": "inhibition", "setting": "initial screen, Table S4", "value": -3.26, "unit": "%"}]}
{"molecule": "CC1=C(C(=O)OCCN(Cc2ccccc2)c2ccccc2)C(c2cccc([N+](=O)[O-])c2)C(P2(=O)OCC(C)(C)CO2)=C(C)N1", "note": "(centres unmarked) [Efonidipine]", "values": [{"measurement": "inhibition", "setting": "initial screen, Table S4", "value": -1.16, "unit": "%"}]}
{"molecule": "CO/N=C(\\C(=O)N[C@@H]1C(=O)N2C(C(=O)O)=C(CSc3nnnn3C)CS[C@H]12)c1csc(N)n1.CO/N=C(\\C(=O)N[C@@H]1C(=O)N2C(C(=O)O)=C(CSc3nnnn3C)CS[C@H]12)c1csc(N)n1.Cl", "note": "[Cefmenoxime hydrochloride]", "values": [{"measurement": "Normalized Percent FRET inhibition", "setting": "[1]", "value": -1.304, "unit": "%"}]}
{"molecule": "CCOC(=O)N[C@@H]1CC[C@@H]2[C@@H](C1)C[C@H]1C(=O)O[C@H](C)[C@H]1[C@H]2/C=C/c1ccc(-c2cccc(F)c2)cn1", "note": "[Vorapaxar]", "values": [{"measurement": "inhibition", "setting": "initial screen, Table S4", "value": -0.416, "unit": "%"}]}
{"molecule": "COc1cc(N2CCC(N3CCN(C)CC3)CC2)ccc1Nc1ncc(Cl)c(Nc2ccccc2P(C)(C)=O)n1", "note": "[Brigatinib]", "values": [{"measurement": "inhibition", "setting": "initial screen, Table S4", "value": 5.97, "unit": "%"}]}
{"molecule": "CC(=O)O[C@H]1C[C@@H]2CC[C@@H]3[C@H](CC[C@@]4(C)[C@H]3C[C@H]([N+]3(C)CCCCC3)[C@@H]4OC(C)=O)[C@@]2(C)C[C@@H]1N1CCCCC1", "note": "[Vecuronium bromide]", "values": [{"measurement": "inhibition", "setting": "initial screen, Table S4", "value": 4.13, "unit": "%"}]}
{"molecule": "C[C@@H](O[C@H]1OCCN(Cc2n[nH]c(=O)[nH]2)[C@H]1c1ccc(F)cc1)c1cc(C(F)(F)F)cc(C(F)(F)F)c1", "note": "[Aprepitant]", "values": [{"measurement": "inhibition", "setting": "initial screen, Table S4", "value": 3.37, "unit": "%"}]}
{"molecule": "Hyaluronic acid", "values": [{"measurement": "Normalized Percent FRET inhibition", "setting": "[1]", "value": -2.844, "unit": "%"}]}
{"molecule": "CC#CCn1c(N2CCC[C@@H](N)C2)nc2c1c(=O)n(Cc1nc(C)c3ccccc3n1)c(=O)n2C", "note": "[Linagliptin]", "values": [{"measurement": "inhibition", "setting": "initial screen, Table S4", "value": 8.28, "unit": "%"}]}
{"molecule": "C=CC(=O)Nc1cccc(Oc2nc(Nc3ccc(N4CCN(C)CC4)cc3)nc3ccsc23)c1", "note": "[Olmutinib]", "values": [{"measurement": "inhibition", "setting": "initial screen, Table S4", "value": -0.795, "unit": "%"}]}
{"molecule": "OC[C@H]1O[C@H](O[C@H]2[C@H](O)[C@@H](O)[C@@H](O[C@H]3[C@H](O)[C@@H](O)[C@@H](O[C@H]4[C@H](O)[C@@H](O)C(O)O[C@@H]4CO)O[C@@H]3CO)O[C@@H]2CO)[C@H](O)[C@@H](O)[C@@H]1O", "note": "(some centres unmarked) [MALTOTETRAOSE]", "values": [{"measurement": "Normalized Percent FRET inhibition", "setting": "[1]", "value": -0.9055, "unit": "%"}]}
{"molecule": "C[C@H]1O[C@@H](O[C@H]2[C@@H](O)C[C@H](O[C@H]3[C@@H](O)C[C@H](O[C@H]4CC[C@@]5(C)[C@H](CC[C@@H]6[C@@H]5CC[C@]5(C)[C@@H](C7=CC(=O)OC7)CC[C@]65O)C4)O[C@@H]3C)O[C@@H]2C)C[C@H](O)[C@@H]1O", "note": "[Digitoxin]", "values": [{"measurement": "inhibition", "setting": "initial screen, Table S4", "value": 0.197, "unit": "%"}]}
{"molecule": "C=CC[C@@H]1/C=C(\\C)C[C@H](C)C[C@H](OC)[C@H]2O[C@@](O)(C(=O)C(=O)N3CCCC[C@H]3C(=O)O[C@H](/C(C)=C/[C@@H]3CC[C@@H](O)[C@H](OC)C3)[C@H](C)[C@@H](O)CC1=O)[C@H](C)C[C@@H]2OC", "note": "[Tacrolimus]", "values": [{"measurement": "inhibition", "setting": "initial screen, Table S4", "value": -0.417, "unit": "%"}]}
{"molecule": "CCc1c2c(nc3ccc(OC(=O)N4CCC(N5CCCCC5)CC4)cc13)-c1cc3c(c(=O)n1C2)COC(=O)[C@]3(O)CC.Cl.O.O.O", "note": "[Irinotecan hydrochloride trihydrate]", "values": [{"measurement": "Normalized Percent FRET inhibition", "setting": "[1]", "value": -2.22, "unit": "%"}]}
{"molecule": "Cc1cccc(C)c1OCC(=O)N[C@@H](Cc1ccccc1)[C@@H](O)C[C@H](Cc1ccccc1)NC(=O)[C@H](C(C)C)N1CCCNC1=O", "note": "[Lopinavir]", "values": [{"measurement": "inhibition", "setting": "initial screen, Table S4", "value": 18.2, "unit": "%"}]}
{"molecule": "COc1ccc2nc3cc(Cl)ccc3c(Nc3cc(CN4CCCC4)c(O)c(CN4CCCC4)c3)c2n1", "note": "[Pyronaridine]", "values": [{"measurement": "inhibition", "setting": "initial screen, Table S4", "value": -8.33, "unit": "%"}]}
{"molecule": "C=CC[N+]1([C@H]2C[C@H]3[C@@H]4CC[C@H]5C[C@H](O)[C@@H](N6CCOCC6)C[C@]5(C)[C@H]4CC[C@]3(C)[C@H]2OC(C)=O)CCCC1", "note": "[Rocuronium bromide]", "values": [{"measurement": "inhibition", "setting": "initial screen, Table S4", "value": 11.3, "unit": "%"}]}
{"molecule": "CCOc1nc2cccc(C(=O)O)c2n1Cc1ccc(-c2ccccc2-c2nnn[nH]2)cc1", "note": "[Candesartan]", "values": [{"measurement": "effect in the FRET-based activity assay (in words)", "value": "no effect"}]}
{"molecule": "C=CC(=O)N1CCC[C@@H](n2nc(-c3ccc(Oc4ccccc4)cc3)c3c(N)ncnc32)C1", "note": "[Ibrutinib]", "values": [{"measurement": "inhibition", "setting": "initial screen, Table S4", "value": -1.91, "unit": "%"}]}
{"molecule": "COc1ccc(CN2CCN(C(c3ccc(F)cc3)c3ccc(F)cc3)CC2)c(OC)c1OC.Cl.Cl", "note": "[Lomerizine hydrochloride]", "values": [{"measurement": "Normalized Percent FRET inhibition", "setting": "[1]", "value": -0.2765, "unit": "%"}]}
{"molecule": "C[C@@H]1O[C@@H](OC[C@H]2O[C@@H](Oc3c(-c4ccc(O)c(O)c4)oc4cc(O)cc(O)c4c3=O)[C@H](O)[C@@H](O)[C@@H]2O)[C@H](O)[C@H](O)[C@H]1O", "note": "[Rutin]", "values": [{"measurement": "inhibition", "setting": "initial screen, Table S4", "value": -0.554, "unit": "%"}]}
{"molecule": "CC(=O)O[C@H]1C[C@@H]2CC[C@@H]3[C@H](CC[C@@]4(C)[C@H]3C[C@H]([N+]3(C)CCCCC3)[C@@H]4OC(C)=O)[C@@]2(C)C[C@@H]1[N+]1(C)CCCCC1", "note": "[Pancuronium bromide]", "values": [{"measurement": "inhibition at 100 µM", "value": 10, "unit": "%"}]}
{"molecule": "CC1(C)CCC(CN2CCN(c3ccc(C(=O)NS(=O)(=O)c4ccc(NCC5CCOCC5)c([N+](=O)[O-])c4)c(Oc4cnc5[nH]ccc5c4)c3)CC2)=C(c2ccc(Cl)cc2)C1", "note": "[ABT199]", "values": [{"measurement": "inhibition", "setting": "initial screen, Table S4", "value": 6.27, "unit": "%"}]}
{"molecule": "CN1c2c(nc(N)[nH]c2=O)NCC1CNc1ccc(C(=O)N[C@@H](CCC(=O)O)C(=O)O)cc1", "note": "(some centres unmarked) [Calcium N5-methyltetrahydrofolate]", "values": [{"measurement": "inhibition at 100 µM", "value": 3.74, "unit": "%"}]}
{"molecule": "Cc1cc(O)c(C(=O)N[C@@H](C(=O)N[C@@H]2C(=O)N3C(C(=O)O)=C(CSc4nnnn4C)CS[C@H]23)c2ccc(O)cc2)cn1", "note": "[Cefpiramide acid]", "values": [{"measurement": "Normalized Percent FRET inhibition", "setting": "[1]", "value": 7.373, "unit": "%"}]}
{"molecule": "CCCc1nc(C(C)(C)O)c(C(=O)OCc2oc(=O)oc2C)n1Cc1ccc(-c2ccccc2-c2nnn[nH]2)cc1", "note": "[Olmesartan Medoxomil]", "values": [{"measurement": "inhibition", "setting": "initial screen, Table S4", "value": 2.83, "unit": "%"}]}
{"molecule": "Nc1nc(=O)c2c([nH]1)NC[C@H](CNc1ccc(C(=O)N[C@@H](CCC(=O)[O-])C(=O)[O-])cc1)N2C=O.[Ca+2]", "note": "[Calcium Levofolinate]", "values": [{"measurement": "Normalized Percent FRET inhibition", "setting": "[1]", "value": 13, "unit": "%"}]}
{"molecule": "CC1(C)S[C@@H]2[C@H](NC(=O)[C@H](NC(=O)N3CCNC3=O)c3ccccc3)C(=O)N2[C@H]1C(=O)O", "note": "[Azlocillin sodium]", "values": [{"measurement": "inhibition", "setting": "initial screen, Table S4", "value": -0.915, "unit": "%"}]}
{"molecule": "Cc1nc2n(c(=O)c1CCN1CCC(c3noc4cc(F)ccc34)CC1)CCCC2", "note": "[Risperidal]", "values": [{"measurement": "Normalized Percent FRET inhibition", "setting": "100 µM", "value": -1.672}]}
{"molecule": "CC(C)=CCC[C@](C)(O[C@@H]1O[C@H](CO)[C@@H](O)[C@H](O)[C@H]1O)[C@H]1CC[C@]2(C)[C@@H]1[C@H](O)C[C@@H]1[C@@]3(C)CC[C@H](O)C(C)(C)[C@@H]3[C@@H](O[C@@H]3O[C@H](CO)[C@@H](O)[C@H](O)[C@H]3O)C[C@]12C", "note": "[Ginsenoside Rg1]", "values": [{"measurement": "inhibition", "setting": "initial screen, Table S4", "value": 4.19, "unit": "%"}]}
{"molecule": "CC(=O)Nc1cccc(-n2c(=O)n(C3CC3)c(=O)c3c(Nc4ccc(I)cc4F)n(C)c(=O)c(C)c32)c1.C[S+](C)[O-]", "note": "[Trametinib DMSO solvate]", "values": [{"measurement": "Normalized Percent FRET inhibition", "setting": "[1]", "value": 1.516, "unit": "%"}]}
{"molecule": "CC(C)CN(C[C@@H](O)[C@H](Cc1ccccc1)NC(=O)O[C@H]1CO[C@H]2OCC[C@H]21)S(=O)(=O)c1ccc(N)cc1.CCO", "note": "[Darunavir Ethanolate]", "values": [{"measurement": "Normalized Percent FRET inhibition", "setting": "[1]", "value": -1.838, "unit": "%"}]}
{"molecule": "CCN1CCN(C(=O)N[C@@H](C(=O)N[C@@H]2C(=O)N3C(C(=O)O)=C(CSc4nnnn4C)CS[C@H]23)c2ccc(O)cc2)C(=O)C1=O", "note": "[Cefoperazone]", "values": [{"measurement": "Normalized Percent FRET inhibition", "setting": "initial screen, 100 μM of drug, Table S4, 100 µM", "value": -0.3067, "unit": "%"}]}
{"molecule": "CC1CNc2c(cccc2S(=O)(=O)N[C@@H](CCCNC(=N)N)C(=O)N2CC[C@@H](C)C[C@@H]2C(=O)O)C1", "note": "(some centres unmarked) [Argatroban]", "values": [{"measurement": "inhibition", "setting": "initial screen, Table S4", "value": 13.5, "unit": "%"}]}
{"molecule": "CS(=O)(=O)CCNCc1ccc(-c2ccc3ncnc(Nc4ccc(OCc5cccc(F)c5)c(Cl)c4)c3c2)o1", "note": "[Lapatinib Ditosylate]", "values": [{"measurement": "inhibition", "setting": "initial screen, Table S4", "value": -1.57, "unit": "%"}]}
{"molecule": "Ginkgolide C", "values": [{"measurement": "Normalized Percent FRET inhibition", "setting": "[1]", "value": -0.7419, "unit": "%"}]}
{"molecule": "CN(c1nccc(=O)[nH]1)C1CCN(c2nc3ccccc3n2Cc2ccc(F)cc2)CC1", "note": "[Mizolastine]", "values": [{"measurement": "inhibition", "setting": "initial screen, Table S4", "value": -0.317, "unit": "%"}]}
{"molecule": "CC(C)OC(=O)[C@H](C)N[P@](=O)(OC[C@H]1O[C@@H](n2ccc(=O)[nH]c2=O)[C@](C)(F)[C@@H]1O)Oc1ccccc1", "note": "[Sofosbuvir]", "values": [{"measurement": "inhibition", "setting": "initial screen, Table S4", "value": -0.4, "unit": "%"}]}
